Data on seven compounds can be found in ChEMBL document CHEMBL1145498, “A systematic interaction map of validated kinase inhibitors with Ser/Thr kinases” (Proc Natl Acad Sci U S A, 2007).

Experiment [1] addresses Calcium/calmodulin-dependent protein kinase type 1G (Homo sapiens) (UniProt Q96NX5).
Experiment [2] addresses Calcium/calmodulin-dependent protein kinase type II subunit alpha (Homo sapiens) (UniProt Q9UQM7).
Experiment [3] concerns the target Calcium/calmodulin-dependent protein kinase type II subunit delta (Homo sapiens) (UniProt Q13557).
The target in experiment [4] is Cyclin-dependent kinase 6 (Homo sapiens) (UniProt Q00534).
Sequence of Cyclin-dependent kinase 6 (Homo sapiens) (Q00534 whole entry): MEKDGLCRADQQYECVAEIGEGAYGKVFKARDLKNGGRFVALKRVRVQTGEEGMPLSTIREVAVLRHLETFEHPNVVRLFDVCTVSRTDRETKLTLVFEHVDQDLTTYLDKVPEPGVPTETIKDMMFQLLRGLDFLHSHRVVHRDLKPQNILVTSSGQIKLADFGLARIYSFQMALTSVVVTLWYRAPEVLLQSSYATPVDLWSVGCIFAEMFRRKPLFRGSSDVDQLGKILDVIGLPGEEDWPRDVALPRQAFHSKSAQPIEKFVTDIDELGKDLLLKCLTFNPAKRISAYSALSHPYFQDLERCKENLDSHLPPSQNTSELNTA
Experiment [5] deals with Serine/threonine-protein kinase Chk2 (Homo sapiens, UniProt O96017).
The target in experiment [6] is Glycogen synthase kinase-3 beta (Homo sapiens, UniProt P49841).
Experiment [7] has as its target Tyrosine-protein kinase JAK1 (Homo sapiens) (UniProt P23458).
Experiment [8] concerns the target T1, Mitogen-activated protein kinase kinase kinase 5 (Homo sapiens) (UniProt Q99683).
T1 sequence (whole entry): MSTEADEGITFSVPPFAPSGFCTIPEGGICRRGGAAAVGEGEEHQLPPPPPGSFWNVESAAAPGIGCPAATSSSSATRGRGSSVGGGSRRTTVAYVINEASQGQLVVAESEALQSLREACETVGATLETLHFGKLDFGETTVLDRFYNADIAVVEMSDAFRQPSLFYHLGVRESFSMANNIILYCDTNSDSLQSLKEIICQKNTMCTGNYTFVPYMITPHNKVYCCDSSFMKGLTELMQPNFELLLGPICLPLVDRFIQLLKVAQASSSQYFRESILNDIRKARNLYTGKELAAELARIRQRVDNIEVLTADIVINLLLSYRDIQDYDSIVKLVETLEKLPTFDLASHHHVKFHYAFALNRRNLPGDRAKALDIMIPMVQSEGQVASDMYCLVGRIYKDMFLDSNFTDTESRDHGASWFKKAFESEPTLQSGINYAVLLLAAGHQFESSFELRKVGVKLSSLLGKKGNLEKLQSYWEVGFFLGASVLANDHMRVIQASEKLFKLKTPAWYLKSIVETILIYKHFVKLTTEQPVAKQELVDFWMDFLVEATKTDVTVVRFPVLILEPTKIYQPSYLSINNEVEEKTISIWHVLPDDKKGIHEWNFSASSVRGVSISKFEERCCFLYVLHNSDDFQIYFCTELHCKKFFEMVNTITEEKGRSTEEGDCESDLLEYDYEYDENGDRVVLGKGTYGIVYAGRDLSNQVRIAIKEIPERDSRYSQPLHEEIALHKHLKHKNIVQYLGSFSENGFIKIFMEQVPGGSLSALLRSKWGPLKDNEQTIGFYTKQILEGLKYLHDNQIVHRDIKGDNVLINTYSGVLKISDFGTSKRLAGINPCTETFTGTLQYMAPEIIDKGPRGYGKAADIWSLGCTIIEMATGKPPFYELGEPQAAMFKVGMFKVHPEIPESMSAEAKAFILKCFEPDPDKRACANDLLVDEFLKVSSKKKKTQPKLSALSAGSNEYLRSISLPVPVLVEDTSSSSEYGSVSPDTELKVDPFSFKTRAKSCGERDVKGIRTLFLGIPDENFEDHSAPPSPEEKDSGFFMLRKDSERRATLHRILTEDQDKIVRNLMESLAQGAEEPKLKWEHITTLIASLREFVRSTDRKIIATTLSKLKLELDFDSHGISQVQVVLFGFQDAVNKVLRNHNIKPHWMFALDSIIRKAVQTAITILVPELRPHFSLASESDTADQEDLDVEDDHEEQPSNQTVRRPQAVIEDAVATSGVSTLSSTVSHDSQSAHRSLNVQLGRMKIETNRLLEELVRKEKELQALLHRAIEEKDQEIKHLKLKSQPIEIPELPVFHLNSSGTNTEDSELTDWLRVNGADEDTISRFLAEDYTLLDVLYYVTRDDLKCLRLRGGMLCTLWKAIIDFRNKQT

The target in experiment [9] is Mitogen-activated protein kinase 3 (Homo sapiens, UniProt P27361).
Sequence of Mitogen-activated protein kinase 3 (P27361 whole entry): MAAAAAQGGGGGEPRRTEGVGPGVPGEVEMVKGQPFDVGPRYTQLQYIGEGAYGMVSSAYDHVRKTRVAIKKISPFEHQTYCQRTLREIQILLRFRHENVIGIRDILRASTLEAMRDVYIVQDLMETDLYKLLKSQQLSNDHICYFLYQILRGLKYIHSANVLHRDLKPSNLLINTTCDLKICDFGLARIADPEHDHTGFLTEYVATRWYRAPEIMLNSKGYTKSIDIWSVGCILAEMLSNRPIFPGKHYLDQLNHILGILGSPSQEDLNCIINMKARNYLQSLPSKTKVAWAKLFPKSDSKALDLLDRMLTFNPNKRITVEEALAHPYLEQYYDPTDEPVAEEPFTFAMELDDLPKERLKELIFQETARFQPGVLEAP
The target of experiment [10] is Serine/threonine-protein kinase 26 (Homo sapiens) (UniProt Q9P289).
For experiment [11], the target named is Serine/threonine-protein kinase Nek6 (Homo sapiens) (UniProt Q9HC98).
Experiment [12] concerns the target Serine/threonine-protein kinase PAK 5 (Homo sapiens) (UniProt Q9P286).
The target of experiment [13] is Serine/threonine-protein kinase pim-2 (Homo sapiens, UniProt Q9P1W9).
The target in experiment [14] is Serine/threonine-protein kinase PLK1 (Homo sapiens) (UniProt P53350).
Sequence of Serine/threonine-protein kinase PLK1 (Homo sapiens) (P53350 whole entry): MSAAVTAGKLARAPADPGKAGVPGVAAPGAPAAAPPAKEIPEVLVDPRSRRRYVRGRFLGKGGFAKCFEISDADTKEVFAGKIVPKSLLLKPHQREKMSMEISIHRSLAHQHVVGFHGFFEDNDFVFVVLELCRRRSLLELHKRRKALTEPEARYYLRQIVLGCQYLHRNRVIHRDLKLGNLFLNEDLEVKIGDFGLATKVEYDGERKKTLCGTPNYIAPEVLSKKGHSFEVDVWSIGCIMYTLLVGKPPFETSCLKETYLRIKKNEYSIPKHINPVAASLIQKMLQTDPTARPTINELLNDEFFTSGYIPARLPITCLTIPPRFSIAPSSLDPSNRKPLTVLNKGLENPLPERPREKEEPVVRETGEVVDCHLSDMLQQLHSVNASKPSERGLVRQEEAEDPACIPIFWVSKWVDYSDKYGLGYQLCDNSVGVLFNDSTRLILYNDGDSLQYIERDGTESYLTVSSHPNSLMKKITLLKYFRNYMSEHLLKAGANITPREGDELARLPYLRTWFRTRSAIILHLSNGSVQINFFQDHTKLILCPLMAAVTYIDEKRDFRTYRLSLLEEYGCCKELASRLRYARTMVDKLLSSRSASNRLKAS
Experiment [15] has as its target Serine/threonine-protein kinase 10 (Homo sapiens) (UniProt O94804).
In experiment [16] the target is Serine/threonine-protein kinase 16 (Homo sapiens) (UniProt O75716).
Sequence of Serine/threonine-protein kinase 16 (Homo sapiens) (O75716 whole entry): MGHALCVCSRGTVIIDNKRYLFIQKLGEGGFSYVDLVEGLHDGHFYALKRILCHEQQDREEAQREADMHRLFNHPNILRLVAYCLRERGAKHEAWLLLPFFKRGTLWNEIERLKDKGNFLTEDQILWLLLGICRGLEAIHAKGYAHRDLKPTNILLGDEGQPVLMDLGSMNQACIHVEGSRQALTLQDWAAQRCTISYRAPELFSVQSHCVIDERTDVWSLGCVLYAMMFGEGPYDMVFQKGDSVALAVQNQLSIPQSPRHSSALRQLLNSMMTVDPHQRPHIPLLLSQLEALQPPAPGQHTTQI
The target in experiment [17] is T2, Serine/threonine-protein kinase 17A (Homo sapiens) (UniProt Q9UEE5).
T2 sequence (whole entry): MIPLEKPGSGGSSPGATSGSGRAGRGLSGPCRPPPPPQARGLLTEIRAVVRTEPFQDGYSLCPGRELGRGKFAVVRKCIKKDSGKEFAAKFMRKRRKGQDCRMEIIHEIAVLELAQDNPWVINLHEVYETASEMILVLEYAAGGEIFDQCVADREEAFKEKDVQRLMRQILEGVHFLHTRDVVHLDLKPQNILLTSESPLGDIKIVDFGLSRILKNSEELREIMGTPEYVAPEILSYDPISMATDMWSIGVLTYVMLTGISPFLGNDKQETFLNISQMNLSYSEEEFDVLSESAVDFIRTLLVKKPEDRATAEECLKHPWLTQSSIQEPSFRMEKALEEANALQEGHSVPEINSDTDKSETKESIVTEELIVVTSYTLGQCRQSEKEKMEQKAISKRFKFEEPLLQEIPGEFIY

For experiment [18], the target named is Serine/threonine-protein kinase 26 (Homo sapiens) (UniProt Q9P289). The source holds these as a separate data set.
Experiment [19] deals with TRAF2 and NCK-interacting protein kinase (Homo sapiens) (UniProt Q9UKE5).
Sequence of TRAF2 and NCK-interacting protein kinase (Homo sapiens) (Q9UKE5 whole entry, looked up): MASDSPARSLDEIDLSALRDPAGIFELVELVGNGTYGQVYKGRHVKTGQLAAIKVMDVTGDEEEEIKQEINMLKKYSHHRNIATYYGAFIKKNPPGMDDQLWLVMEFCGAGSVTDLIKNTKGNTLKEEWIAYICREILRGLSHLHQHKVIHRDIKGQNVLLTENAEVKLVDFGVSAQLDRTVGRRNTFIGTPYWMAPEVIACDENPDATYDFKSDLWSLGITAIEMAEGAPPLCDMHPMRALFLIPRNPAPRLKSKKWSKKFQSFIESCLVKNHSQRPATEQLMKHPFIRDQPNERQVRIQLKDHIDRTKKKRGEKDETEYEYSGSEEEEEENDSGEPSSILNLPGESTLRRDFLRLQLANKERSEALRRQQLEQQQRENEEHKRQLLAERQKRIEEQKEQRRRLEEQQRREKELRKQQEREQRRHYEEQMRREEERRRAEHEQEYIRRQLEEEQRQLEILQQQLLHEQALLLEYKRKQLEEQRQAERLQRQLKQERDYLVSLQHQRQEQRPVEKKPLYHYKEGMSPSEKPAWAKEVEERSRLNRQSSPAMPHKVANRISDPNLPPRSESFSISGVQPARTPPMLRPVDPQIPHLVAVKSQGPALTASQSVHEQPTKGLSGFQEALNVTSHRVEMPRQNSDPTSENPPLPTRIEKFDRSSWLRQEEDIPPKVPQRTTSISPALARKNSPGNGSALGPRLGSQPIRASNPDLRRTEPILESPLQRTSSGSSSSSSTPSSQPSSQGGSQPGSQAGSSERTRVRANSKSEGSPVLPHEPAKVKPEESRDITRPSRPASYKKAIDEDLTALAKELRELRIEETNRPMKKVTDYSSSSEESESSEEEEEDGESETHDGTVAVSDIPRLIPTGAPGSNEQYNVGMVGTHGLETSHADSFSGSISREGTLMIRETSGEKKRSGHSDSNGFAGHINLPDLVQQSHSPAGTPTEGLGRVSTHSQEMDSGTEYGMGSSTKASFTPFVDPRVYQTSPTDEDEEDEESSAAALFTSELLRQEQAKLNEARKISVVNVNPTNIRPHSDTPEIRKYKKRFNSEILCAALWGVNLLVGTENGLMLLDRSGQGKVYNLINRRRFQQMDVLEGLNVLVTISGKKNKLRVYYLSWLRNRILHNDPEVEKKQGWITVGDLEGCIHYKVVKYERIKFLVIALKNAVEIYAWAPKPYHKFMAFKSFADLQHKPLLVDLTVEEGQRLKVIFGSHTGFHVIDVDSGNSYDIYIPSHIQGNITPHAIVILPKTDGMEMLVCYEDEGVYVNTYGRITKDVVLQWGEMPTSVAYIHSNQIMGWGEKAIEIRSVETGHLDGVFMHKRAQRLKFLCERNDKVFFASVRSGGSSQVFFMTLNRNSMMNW
Experiment [20] concerns the target Serine/threonine-protein kinase VRK2 (Homo sapiens) (UniProt Q86Y07).
Experiment [21] has as its target Calcium/calmodulin-dependent protein kinase type II subunit beta (Homo sapiens) (UniProt Q13554).

Sequence of Tyrosine-protein kinase JAK1 (Homo sapiens) (P23458 whole entry): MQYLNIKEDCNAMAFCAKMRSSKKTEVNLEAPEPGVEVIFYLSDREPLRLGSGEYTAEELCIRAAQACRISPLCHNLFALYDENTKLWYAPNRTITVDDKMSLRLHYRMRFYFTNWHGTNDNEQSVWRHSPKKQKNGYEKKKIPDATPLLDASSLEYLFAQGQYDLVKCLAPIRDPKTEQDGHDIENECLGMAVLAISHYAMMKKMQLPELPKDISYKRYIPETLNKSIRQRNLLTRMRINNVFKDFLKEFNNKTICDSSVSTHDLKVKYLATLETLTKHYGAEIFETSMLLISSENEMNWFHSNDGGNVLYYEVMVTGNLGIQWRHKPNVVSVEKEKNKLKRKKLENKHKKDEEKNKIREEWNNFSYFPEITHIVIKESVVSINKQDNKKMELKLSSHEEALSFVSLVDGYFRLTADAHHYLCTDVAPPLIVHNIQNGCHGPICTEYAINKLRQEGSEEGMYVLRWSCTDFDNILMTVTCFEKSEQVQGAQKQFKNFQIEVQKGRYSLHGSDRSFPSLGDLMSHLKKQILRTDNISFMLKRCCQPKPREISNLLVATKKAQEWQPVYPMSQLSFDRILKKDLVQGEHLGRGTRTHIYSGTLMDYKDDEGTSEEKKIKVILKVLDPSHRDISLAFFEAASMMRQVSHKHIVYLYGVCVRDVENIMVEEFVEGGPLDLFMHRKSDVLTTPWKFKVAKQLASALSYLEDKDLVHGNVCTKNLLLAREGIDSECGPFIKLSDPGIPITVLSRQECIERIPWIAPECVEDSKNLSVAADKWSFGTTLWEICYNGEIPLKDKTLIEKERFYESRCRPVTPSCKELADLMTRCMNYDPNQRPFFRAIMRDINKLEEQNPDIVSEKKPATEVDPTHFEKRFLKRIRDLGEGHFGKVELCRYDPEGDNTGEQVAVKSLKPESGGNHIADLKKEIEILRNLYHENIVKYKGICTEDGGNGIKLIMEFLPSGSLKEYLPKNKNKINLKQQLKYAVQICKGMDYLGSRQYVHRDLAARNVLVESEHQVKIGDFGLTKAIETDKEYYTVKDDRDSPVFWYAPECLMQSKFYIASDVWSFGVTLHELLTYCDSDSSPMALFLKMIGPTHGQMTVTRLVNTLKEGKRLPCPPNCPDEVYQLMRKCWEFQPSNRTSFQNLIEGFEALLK
Sequence of Calcium/calmodulin-dependent protein kinase type II subunit beta (Homo sapiens) (Q13554 whole entry): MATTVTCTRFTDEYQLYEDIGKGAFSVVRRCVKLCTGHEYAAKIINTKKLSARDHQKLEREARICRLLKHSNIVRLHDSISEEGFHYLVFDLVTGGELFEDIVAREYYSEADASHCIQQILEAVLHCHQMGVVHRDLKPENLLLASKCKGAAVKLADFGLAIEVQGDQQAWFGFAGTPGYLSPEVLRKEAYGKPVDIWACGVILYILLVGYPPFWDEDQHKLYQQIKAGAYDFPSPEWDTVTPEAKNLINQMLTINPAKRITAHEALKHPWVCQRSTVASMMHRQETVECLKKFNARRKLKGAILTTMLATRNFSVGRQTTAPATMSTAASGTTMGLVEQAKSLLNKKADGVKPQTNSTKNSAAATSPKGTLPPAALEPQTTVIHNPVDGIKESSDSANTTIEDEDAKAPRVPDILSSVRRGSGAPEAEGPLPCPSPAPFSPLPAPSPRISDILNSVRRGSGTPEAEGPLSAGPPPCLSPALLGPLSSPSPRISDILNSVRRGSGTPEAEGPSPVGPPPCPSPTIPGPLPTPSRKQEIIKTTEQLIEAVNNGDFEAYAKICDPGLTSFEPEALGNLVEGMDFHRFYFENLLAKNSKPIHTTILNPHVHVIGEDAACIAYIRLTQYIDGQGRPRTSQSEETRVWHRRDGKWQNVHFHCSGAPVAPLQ

For the compound `O=C1c2ccccc2-c2n[nH]c3cccc1c23`, the ΔTm (commonly the change in melting temperature against a reference sample) was 2 °C in [1]; 0.8 °C in [2]; -0.5 °C in [3]; 0.3 °C in experiment [4]; 6 °C in [5]; 1.6 °C in experiment [6]. In addition, the ΔTm stood at 5.5 °C in experiment [7]; 8.8 °C in [8]; 0.9 °C in experiment [9]; 2.1 °C in experiment [10]; 0.9 °C in [11]; 1.1 °C in experiment [12]. The thermal shift (ΔTm) in experiment [13] was 3.6 °C; in [14], 1.6 °C; in experiment [15], 2.8 °C; in experiment [16], 6.9 °C; in experiment [17], 10 °C; in experiment [18], 3.3 °C. Moreover, the ΔTm turned out to be 3 °C in [19] and 2.6 °C in [20].
As for `COc1cc2ncnc(Nc3cccc(O)c3)c2cc1OC`, the thermal shift (ΔTm) is 0 °C in experiment [2]; 0.2 °C in [21]; -0.6 °C in experiment [3]; -0.2 °C in experiment [4]; 1.8 °C in experiment [5]; 2.2 °C in [6]. Further, the shift in melting temperature (ΔTm) in experiment [7] was 2.1 °C; in [8] it was 1 °C; in [9] it was -0.2 °C; in experiment [11], -0.1 °C; in experiment [12], 0.5 °C; in experiment [13], 0.6 °C. For the same compound, the ΔTm in experiment [14] amounted to 1 °C; in [15] it was 4.2 °C; in experiment [16], 0.4 °C; in experiment [17], 3.7 °C; in experiment [18] it was 0.1 °C; in experiment [19], 0.9 °C. In addition, in experiment [20], the shift in melting temperature (ΔTm) came to 0.9 °C.
With `C[C@@H](N)[C@H]1CC[C@H](C(=O)Nc2ccncc2)CC1`, the shift in melting temperature (ΔTm) was -0.3 °C in experiment [1]; -0.3 °C in experiment [2]; 0.7 °C in experiment [3]; 1 °C in [4]; -0.7 °C in [5]; 0.6 °C in [6]. The ΔTm in experiment [7] is -0.4 °C; in [8], 1.1 °C; in [9], 0.1 °C; in [10], 0.2 °C; in experiment [11], 0 °C; in experiment [12] it was 0.1 °C. Moreover, the ΔTm in [13] is 0.6 °C; in experiment [14], -0.2 °C; in [15], 1.2 °C; in [16] it was 0.6 °C; in [17], 1.3 °C; in experiment [18], 0.3 °C. The ΔTm in experiment [19] was 0.1 °C; in experiment [20], 0.5 °C.
On to `CN[C@@H]1CC2O[C@@](C)([C@@H]1OC)n1c3ccccc3c3c4c(c5c6ccccc6n2c5c31)C(=O)NC4`, for which the ΔTm was found to be 16.3 °C in experiment [2]; 17.1 °C in [3]; 1 °C in experiment [4]; 1.9 °C in experiment [7]; 16.3 °C in experiment [8]; 1.3 °C in experiment [9]. For the same compound, the thermal shift (ΔTm) in experiment [10] is 9.3 °C; in experiment [11] it was -0.3 °C; in experiment [12] it was 12.4 °C; in experiment [15] it was 24.8 °C; in [16], 9.6 °C; in experiment [17], 17.4 °C. Further, the thermal shift (ΔTm) stood at 8.8 °C in [18], 9.4 °C in experiment [19] and 2 °C in experiment [20].
For the compound `Nc1n[nH]c2nnc(-c3c(-c4ccccc4)nn4ccccc34)cc12`, the thermal shift (ΔTm) in experiment [1] is 0.1 °C; in experiment [2], -0.4 °C; in experiment [21], -0.6 °C; in experiment [3], -0.6 °C; in experiment [4] it was 1.7 °C; in [5] it was 0.9 °C. For the same compound, the shift in melting temperature (ΔTm) in experiment [6] is 5 °C; in [7], 0.3 °C; in [8] it was 0.6 °C; in experiment [9], 0.4 °C; in experiment [10], 1 °C; in experiment [11], 0.3 °C. Further, the ΔTm in experiment [12] was -0.4 °C; in [13], 0.6 °C; in experiment [14] it was -0.3 °C; in [15], -0.2 °C; in experiment [16] it was 0 °C; in experiment [17] it was 0.8 °C. The shift in melting temperature (ΔTm) in experiment [18] is -0.1 °C; in [19], 1.1 °C.
Turning to `OC[C@H]1O[C@@H](n2cnc3cc(Cl)c(Cl)cc32)[C@H](O)[C@@H]1O`, the thermal shift (ΔTm) in experiment [1] was -0.1 °C; in [2], 0.8 °C; in experiment [21], -0.1 °C; in experiment [3] it was -0.2 °C; in [4] it was -0.3 °C; in [5] it was 0.2 °C. Moreover, the ΔTm in experiment [6] is 0.7 °C; in [7] it was 0 °C; in experiment [8], -0.4 °C; in experiment [9], 0.4 °C; in experiment [10], -0.3 °C; in experiment [12] it was 0.2 °C. The ΔTm is 2.6 °C in experiment [13]; -0.5 °C in experiment [14]; -0.7 °C in experiment [15]; 1.1 °C in experiment [16]; 2.1 °C in experiment [17]; -0.3 °C in experiment [18]. In addition, the shift in melting temperature (ΔTm) in experiment [19] stood at 0.2 °C; in experiment [20] it was 0 °C.
Regarding `COc1ccc(COc2ccc(Cc3cnc(N)nc3N)cc2OC)cc1`, the shift in melting temperature (ΔTm) is -0.2 °C in [1]; -0.1 °C in experiment [2]; -0.2 °C in [21]; -0.2 °C in experiment [3]; 0.9 °C in experiment [4]; 0.1 °C in experiment [5]. Besides, the ΔTm in experiment [6] was 0.4 °C; in experiment [7] it was 0.3 °C; in [8] it was -0.2 °C; in experiment [9], 0.3 °C; in [10] it was 0.9 °C; in experiment [11] it was -0.2 °C. Also, the ΔTm was -0.2 °C in experiment [12]; 0.2 °C in experiment [13]; -1 °C in [14]; -0.5 °C in [15]; 0 °C in [16]; -0.4 °C in experiment [17]. The ΔTm in experiment [18] amounted to 0 °C; in experiment [19], 0.1 °C.
